Source: patent US9101611B1, “Use of sulfonylurea (Glimepiride) to lower blood glucose” (priority 2014, dated 2015)

Experiment: Stopping Glimepiride tablets after secondary failure, then resuming; effect on blood glucose
Type: in vivo, human
Conditions: then resumed
Description: From new research, I found a new usage of sulfonylurea drug Glimepiride when secondary failure occurs. […] It is likely that recovery works because stopping taking the drug fools the human body to assume like the first day taking it which it is claimed.
Since pre-diabetes and/or diabetes have used sulfonylurea drugs since the mid-1950s (1), there is no new matter or invention of sulfonylurea drugs in this patent application. The newness in this patent application is the usage of sulfonylurea drug like Glimepiride that fails to work when secondary failure occurs by stopping taking the tablet for 3 or 5 days which automatically also lower blood glucose and then resuming taking it that works like the first day taking it. In essence, it prevents the patient from taking more dosage of medication and/or changing to another different medication.

With `CCC1=C(C)CN(C(=O)NCCc2ccc(S(=O)(=O)NC(=O)N[C@H]3CC[C@H](C)CC3)cc2)C1=O` [Glimepiride] the “effectiveness to lower blood glucose” value (tablets stopped for 3 days) was “recovers Glimepiride's effectiveness to lower blood glucose like the first day taking it” and the recovery effectiveness (tablets stopped for 5 days) was “recovery effectiveness was first detected”.
